Assay results as given in patent US20140171417A1, “TRICYCLIC COMPOUNDS” (NOVARTIS AG, priority 2012, published 2014).

These compounds were tested against T1, CFTR (Homo sapiens, UniProt P13569) (assay: IonWorks Quattro assay (CFTR Inhibitor Assay), whole-cell planar patch clamp). Conditions: inward current (−100 mV); CHO cells stably expressing WT-CFTR; CFTR activated by 10 μM forskolin; test compound incubated 10 min.
T1 construct: expressed in transfected cells
Assay type: cell-based

T1 sequence (P13569 whole entry): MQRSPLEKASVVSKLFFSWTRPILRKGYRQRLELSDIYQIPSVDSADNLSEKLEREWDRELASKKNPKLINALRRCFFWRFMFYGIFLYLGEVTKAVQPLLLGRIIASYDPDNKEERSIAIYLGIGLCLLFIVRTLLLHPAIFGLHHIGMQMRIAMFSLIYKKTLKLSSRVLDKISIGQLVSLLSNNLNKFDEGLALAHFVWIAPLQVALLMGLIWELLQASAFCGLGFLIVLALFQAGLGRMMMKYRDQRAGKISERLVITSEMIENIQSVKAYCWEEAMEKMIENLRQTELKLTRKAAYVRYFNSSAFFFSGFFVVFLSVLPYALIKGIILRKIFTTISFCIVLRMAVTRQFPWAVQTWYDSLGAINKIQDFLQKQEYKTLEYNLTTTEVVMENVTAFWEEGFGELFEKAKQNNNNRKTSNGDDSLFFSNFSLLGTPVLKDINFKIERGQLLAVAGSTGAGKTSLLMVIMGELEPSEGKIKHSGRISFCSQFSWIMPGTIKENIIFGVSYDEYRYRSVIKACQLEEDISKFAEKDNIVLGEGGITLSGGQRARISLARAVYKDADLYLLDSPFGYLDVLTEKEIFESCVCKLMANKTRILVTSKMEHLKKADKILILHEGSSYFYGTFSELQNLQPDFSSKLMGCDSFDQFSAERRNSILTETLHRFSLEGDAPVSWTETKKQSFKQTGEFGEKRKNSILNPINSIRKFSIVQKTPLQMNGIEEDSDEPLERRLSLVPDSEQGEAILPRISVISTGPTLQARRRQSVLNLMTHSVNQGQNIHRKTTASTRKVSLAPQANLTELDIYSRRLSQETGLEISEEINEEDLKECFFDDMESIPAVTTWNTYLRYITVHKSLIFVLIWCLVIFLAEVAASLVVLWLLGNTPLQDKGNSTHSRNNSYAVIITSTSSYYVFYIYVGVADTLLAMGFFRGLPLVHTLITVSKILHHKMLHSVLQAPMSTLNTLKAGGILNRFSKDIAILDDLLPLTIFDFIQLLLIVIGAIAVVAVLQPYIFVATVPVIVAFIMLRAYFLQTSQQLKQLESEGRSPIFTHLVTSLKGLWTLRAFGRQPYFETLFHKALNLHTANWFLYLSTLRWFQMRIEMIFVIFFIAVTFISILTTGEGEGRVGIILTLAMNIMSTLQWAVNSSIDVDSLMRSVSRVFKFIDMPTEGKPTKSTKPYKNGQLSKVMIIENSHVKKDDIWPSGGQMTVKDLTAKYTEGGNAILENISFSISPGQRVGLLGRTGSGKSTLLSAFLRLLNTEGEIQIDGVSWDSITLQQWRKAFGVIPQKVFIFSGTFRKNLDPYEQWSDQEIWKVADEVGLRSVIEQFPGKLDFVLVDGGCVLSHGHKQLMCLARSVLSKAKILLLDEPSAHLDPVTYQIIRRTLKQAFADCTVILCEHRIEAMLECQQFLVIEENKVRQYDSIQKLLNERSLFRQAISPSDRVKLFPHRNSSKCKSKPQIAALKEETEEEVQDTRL

**Q.** Cc1csc(C2c3c4c(c(-c5cccc(C#N)c5)n3CC2(C)C)c(=O)n(C)c(=O)n4C)n1 (single isomer, unassigned) [Example 21.8, 3-(1,3,8,8-Tetramethyl-9-(4-methylthiazol-2-yl)-2,4-dioxo-2,3,4,7,8,9-hexahydro-1H-pyrimido[4,5-a]pyrrolizin-5-yl)benzonitrile] was tested. Which IC50 did it give?
**A.** Its IC50 is 1.39 µM.

**Q.** For Cn1c(=O)c2c(-c3ccccc3)n3c(c2n(C)c1=O)C(c1nc(Cl)cs1)C(C)(C)C3 (single isomer, unassigned) [Example 21a, 9-(4-chlorothiazol-2-yl)-1,3,8,8-tetramethyl-5-phenyl-8,9-dihydro-1H-pyrimido[4,5-a]pyrrolizine-2,4(3H,7H)-dione], which IC50 is on record?
**A.** The IC50 was 0.33 µM.

**Q.** Cn1c(=O)c2c(-c3cccc(C#N)c3)n3c(c2n(C)c1=O)[C@H](c1nc(Cl)cs1)C[C@@H](CO)C3 (single isomer, unassigned) [Example 23.1a, 3-(10-(4-chlorothiazol-2-yl)-8-(hydroxymethyl)-1,3-dimethyl-2,4-dioxo-1,2,3,4,7,8,9,10-octahydropyrimido[4,5-a]indolizin-5-yl)benzonitrile] was tested. Which IC50 did it give?
**A.** The IC50 was 0.1 µM.

**Q.** Cn1c(=O)c2c(-c3cccc(F)c3)n3c(c2n(C)c1=O)[C@H](c1nc(Cl)cs1)C[C@@H](CO)C3 (single isomer, unassigned) [Example 23a, 10-(4-chlorothiazol-2-yl)-5-(3-fluorophenyl)-8-(hydroxymethyl)-1,3-dimethyl-7,8,9,10-tetrahydropyrimido[4,5-a]indolizine-2,4(1H,3H)-dione] was tested. Which IC50 did it give?
**A.** Its IC50 is 0.05 µM.

**Q.** With Cc1ccc([C@@H]2CC[C@@H](Cn3nccn3)n3c(-c4ccccc4)c4c(=O)n(C)c(=O)n(C)c4c32)o1 (single isomer, unassigned) [Example 24] as the compound, how does the IC50 read?
**A.** Its IC50 is 1.74 µM.

**Q.** With COCC(=O)NC[C@H]1Cn2c(-c3nc(C)cs3)c3c(=O)n(C)c(=O)n(C)c3c2[C@H](c2ccc(Cl)o2)S1 (single isomer, unassigned) [Example 26.1a, N-((10-(5-chlorofuran-2-yl)-1,3-dimethyl-5-(4-methylthiazol-2-yl)-2,4-dioxo-2,3,4,7,8,10-hexahydro-1H-pyrimido[4′,5′:3,4]pyrrolo[2,1-c][1,4]thiazin-8-yl)methyl)-2-methoxyacetamide] as the compound, how does the IC50 read?
**A.** The IC50 was 0.23 µM.

**Q.** CC(=O)NC[C@H]1Cn2c(-c3nc(C)cs3)c3c(=O)n(C)c(=O)n(C)c3c2[C@H](c2ccc(Cl)o2)S1 (single isomer, unassigned) [Example 26.3a, N-((10-(5-chlorofuran-2-yl)-1,3-dimethyl-5-(4-methylthiazol-2-yl)-2,4-dioxo-2,3,4,7,8,10-hexahydro-1H-pyrimido[4′,5′:3,4]pyrrolo[2,1-c][1,4]thiazin-8-yl)methyl)acetamide] was tested. Which IC50 did it give?
**A.** The IC50 was 0.45 µM.

**Q.** Cc1csc(-c2c3c(=O)n(C)c(=O)n(C)c3c3n2C[C@H](CNS(C)(=O)=O)S[C@H]3c2ccc(Cl)o2)n1 (single isomer, unassigned) [Example 26a, N-((10-(5-chlorofuran-2-yl)-1,3-dimethyl-5-(4-methylthiazol-2-yl)-2,4-dioxo-2,3,4,7,8,10-hexahydro-1H-pyrimido[4′,5′:3,4]pyrrolo[2,1-c][1,4]thiazin-8-yl)methyl)methanesulfonamide] was tested. Which IC50 did it give?
**A.** Its IC50 is 0.15 µM.

**Q.** Which IC50 does the source give for Cc1csc(-c2c3c(=O)n(C)c(=O)n(C)c3c3n2C[C@@H](Cn2ccnc2)S[C@@H]3c2ccc(Cl)o2)n1 (single isomer, unassigned) [Example 28a, 8-((1H-imidazol-1-yl)methyl)-10-(5-chlorofuran-2-yl)-1,3-dimethyl-5-(4-methylthiazol-2-yl)-7,8-dihydro-1H-pyrimido[4′,5′:3,4]pyrrolo[2,1-c][1,4]thiazine-2,4(3H,10H)-dione] here?
**A.** The IC50 was 0.11 µM.

**Q.** Cc1csc(-c2c3c(=O)n(C)c(=O)n(C)c3c3n2C[C@@H](CN2CCCC2=O)S[C@@H]3c2ccc(Cl)o2)n1 (single isomer, unassigned) [Example 30.1a, 10-(5-chlorofuran-2-yl)-1,3-dimethyl-5-(4-methylthiazol-2-yl)-8-((2-oxopyrrolidin-1-yl)methyl)-7,8-dihydro-1H-pyrimido[4′,5′:3,4]pyrrolo[2,1-c][1,4]thiazine-2,4(3H,10H)-dione] was tested. Which IC50 did it give?
**A.** The IC50 was 0.25 µM.

**Q.** With Cc1csc(-c2c3c(=O)n(C)c(=O)n(C)c3c3n2C[C@@H](CN2CCOC2=O)S[C@@H]3c2ccc(Cl)o2)n1 (single isomer, unassigned) [Example 30a, 10-(5-chlorofuran-2-yl)-1,3-dimethyl-5-(4-methylthiazol-2-yl)-8-((2-oxooxazolidin-3-yl)methyl)-7,8-dihydro-1H-pyrimido[4′,5′:3,4]pyrrolo[2,1-c][1,4]thiazine-2,4(3H,10H)-dione] as the compound, how does the IC50 read?
**A.** Its IC50 is 0.16 µM.

**Q.** Cn1c(=O)c2c(-c3cccc(C#N)c3)n3c(c2n(C)c1=O)C(c1nc(Cl)cs1)CCCC3 (single isomer, unassigned) [Example 31, 3-(11-(4-chlorothiazol-2-yl)-1,3-dimethyl-2,4-dioxo-2,3,4,7,8,9,10,11-octahydro-1H-pyrimido[4′,5′:3,4]pyrrolo[1,2-a]azepin-5-yl)benzonitrile] was tested. Which IC50 did it give?
**A.** Its IC50 is 1.45 µM.

**Q.** With Cn1c(=O)c2c(-c3ccccc3)n3c(c2n(C)c1=O)[C@H](c1ccc(Cl)o1)SCC3 [Example 1.1.1, (R)-10-(5-chlorofuran-2-yl)-1,3-dimethyl-5-phenyl-7,8-dihydro-1H-pyrimido[4′,5′:3,4]pyrrolo[2,1-c][1,4]thiazine-2,4(3H,10H)-dione] as the compound, how does the IC50 read?
**A.** Its IC50 is 0.63 µM.

**Q.** Cc1ccc([C@@H]2CCCn3c(-c4ccccc4)c4c(=O)n(C)c(=O)n(C)c4c32)o1 [Example 6.3, (R)-1,3-Dimethyl-10-(5-methylfuran-2-yl)-5-phenyl-7,8,9,10-tetrahydropyrimido[4,5-a]indolizine-2,4(1H,3H)-dione] was tested. Which IC50 did it give?
**A.** The IC50 was 2.24 µM.

**Q.** With Cc1ccc([C@H]2CCCn3c(-c4ccccc4)c4c(=O)n(C)c(=O)n(C)c4c32)o1 [Example 6.4, (S)-1,3-Dimethyl-10-(5-methylfuran-2-yl)-5-phenyl-7,8,9,10-tetrahydropyrimido[4,5-a]indolizine-2,4(1H,3H)-dione] as the compound, how does the IC50 read?
**A.** The IC50 was > 30 µM.

**Q.** How did the IC50 turn out when Cn1c(=O)c2c(-c3cccc(C#N)c3)n3c(c2n(C)c1=O)[C@H](c1nc(Cl)cs1)CCC3 [Example 13a, (R)-3-(10-(4-chlorothiazol-2-yl)-1,3-dimethyl-2,4-dioxo-1,2,3,4,7,8,9,10-octahydropyrimido[4,5-a]indolizin-5-yl)benzonitrile] was run?
**A.** Its IC50 is 0.07 µM.

**Q.** How did the IC50 turn out when Cn1c(=O)c2c(-c3cccc(F)c3)n3c(c2n(C)c1=O)[C@H](c1nc(Cl)cs1)C[C@@H]3CO [Example 27a, (7R,9R)-9-(4-chlorothiazol-2-yl)-5-(3-fluorophenyl)-7-(hydroxymethyl)-1,3-dimethyl-8,9-dihydro-1H-pyrimido[4,5-a]pyrrolizine-2,4(3H,7H)-dione] was run?
**A.** Its IC50 is 0.15 µM.
